Key:
Test in all cases: karenitecin treatment of PDX model
Format in all cases: in vivo
Set-up in all cases: key to Response: responder: responded to karenitecin treatment (AUC<0.5 and TGI>0.8); non_responder: did not respond to karenitecin treatment (AUC>0.5 and TGI<0.6)
Conditions in all cases: karenitecin treatment for two weeks
PDX CR1560 = test system: PDX CR1560
Method: (§1) A cohort of 48 PDX models in 8 cancers were used in this study. Those models were subject to karenitecin treatment for two weeks. Both tumor growth inhibition (TGI) and median AUC (area under curve) ratio, a newly developed metric to evaluate drug efficacy, were calculated (Table 1). Those models can be divided into two categories according to TGI and median AUC ratio.

PDX CR2520 = test system: PDX CR2520
Method: as §1

PDX ES0042 = test system: PDX ES0042
Method: as §1

PDX ES0110 = test system: PDX ES0110
Method: as §1

PDX ES0201 = test system: PDX ES0201
Method: as §1

PDX ES2267 = test system: PDX ES2267
Method: as §1

PDX GA0087 = test system: PDX GA0087
Method: as §1

PDX GA0098 = test system: PDX GA0098
Method: as §1

PDX GA3102 = test system: PDX GA3102
Method: as §1

PDX GA3109 = test system: PDX GA3109
Method: as §1

PDX LU0884 = test system: PDX LU0884
Method: as §1

PDX LU1155 = test system: PDX LU1155
Method: as §1

PDX LU1235 = test system: PDX LU1235
Method: as §1

PDX LU1429 = test system: PDX LU1429
Method: as §1

For `CC[C@@]1(O)C(=O)OCc2c1cc1n(c2=O)Cc2c-1nc1ccccc1c2CC[Si](C)(C)C` [karenitecin], the “Median AUC ratio” value (PDX CR1560) was 0.397, the Response (PDX CR1560) was “responder” and the TGI (PDX CR1560) was 1.146. For the same compound, the “Median AUC ratio” value (PDX CR2520) was 0.914, the Response (PDX CR2520) was “non_responder” and the TGI (PDX CR2520) was 0.288. The “Median AUC ratio” value (PDX ES0042) was −0.100, the Response (PDX ES0042) was “responder” and the TGI (PDX ES0042) was 1.128. The “Median AUC ratio” value (PDX ES0110) was 0.344, the Response (PDX ES0110) was “responder” and the TGI (PDX ES0110) was 1.010. The “Median AUC ratio” value (PDX ES0201) was 1.093, the Response (PDX ES0201) was “non_responder” and the TGI (PDX ES0201) was 0.529. For the same compound, the “Median AUC ratio” value (PDX ES2267) was −0.288, the Response (PDX ES2267) was “responder” and the TGI (PDX ES2267) was 1.240. For the same compound, the “Median AUC ratio” value (PDX GA0087) was −1.097, the Response (PDX GA0087) was “responder” and the TGI (PDX GA0087) was 1.316. The “Median AUC ratio” value (PDX GA0098) was 0.512, the Response (PDX GA0098) was “non_responder” and the TGI (PDX GA0098) was 0.482. For the same compound, the “Median AUC ratio” value (PDX GA3102) was 0.084, the Response (PDX GA3102) was “responder” and the TGI (PDX GA3102) was 1.061. For the same compound, the “Median AUC ratio” value (PDX GA3109) was 0.137, the Response (PDX GA3109) was “responder” and the TGI (PDX GA3109) was 1.046. For the same compound, the “Median AUC ratio” value (PDX LU0884) was 1.497, the Response (PDX LU0884) was “non_responder” and the TGI (PDX LU0884) was −0.188. For the same compound, the “Median AUC ratio” value (PDX LU1155) was 0.406, the Response (PDX LU1155) was “responder” and the TGI (PDX LU1155) was 0.991. The “Median AUC ratio” value (PDX LU1235) was −0.018, the Response (PDX LU1235) was “responder” and the TGI (PDX LU1235) was 0.932. The “Median AUC ratio” value (PDX LU1429) was 0.076, the Response (PDX LU1429) was “responder” and the TGI (PDX LU1429) was 1.054.
